The values that follow come from PubChem BioAssay AID1963597 (National Center for Advancing Translational Sciences (NCATS), 2024).

Residues, ends and D or L forms follow the SMILES beside them.

In this series the test system is human liver microsomes, metabolic stability half-life. Nature of the series: NCATS Human Liver Microsomal (HLM) Stability Profiling. The following applies: higher = more stable; screened at 1 µM (by protocol). The source says:
Assay submitter (PI): Dr. Pranav Shah
NIH Center for Advancing Translational Sciences
Pharmacokinetic issues were the leading cause of drug attrition, accounting for approximately 40% of all cases before the turn of the century. To this end, several high-throughput in vitro assays like microsomal stability have been developed to evaluate the pharmacokinetic profiles of compounds in early stages of drug discovery. At NCATS, a single-point rat liver microsomal (RLM) stability assay is used as a Tier I assay, while human liver microsomal (HLM) stability is employed as a Tier II assay. While it is beneficial to have compound libraries screened for HLM stability, the increasing magnitude of hits routinely generated, and the time- and re-source-intensive nature of the assay makes it important to find alternatives. One strategy is to rely on in silico models that have been developed using data generated from these assays. Herein, we describe the development of an HLM stability prediction model using our in-house dataset of ~7,000 compounds, employing both traditional and advanced machine learning methods. Additionally, the strong correlation between our RLM and HLM data was further reinforced by the fact that our HLM model performance improved after adding RLM stability predictions as an input descriptor. […] The best model along with a subset of our dataset has been made publicly accessible on the NCATS@ADME website for the benefit of the greater drug discovery community.
Microsomal Stability Assay
The substrate depletion method, also called the in vitro t1/2 method was used to analyze test compounds. Incubation and liquid handling were carried out using a previously described method (Shah et al., 2016). Briefly, each reaction mixture (110 µL) consisted of a test article (1 µM), human liver microsomes (0.5 mg/mL), and NADPH regenerating system in phosphate buffer at pH 7.4. Samples were incubated in 384-well plates at 37 degrees C for 0, 5, 10, 15, 30 and 60 min. At each time point, 10 µL of the incubation mixture was aspirated into another 384-well plate which contained cold acetonitrile (ACN) with internal standard (albendazole). All plates were centrifuged at 3000 rpm for 20 min at 4 degrees C, and the supernatants were transferred to a 384-well injection plate. Sample quantification and analysis was performed using a previously described method (Shah et al., 2016, Siramshetty et al., 2020).
1: Shah, P. et al. An Automated High-Throughput Metabolic Stability Assay Using an Integrated High-Resolution Accurate Mass Method and Automated Data Analysis Software. Drug Metab Dispos 44, 1653-1661 (2016).
2: Siramshetty et al. Retrospective assessment of rat liver microsomal stability at NCATS: data and QSAR models. Sci Rep 26;10(1):20713 (2020).
For orientation: Liver microsomes are vesicles of endoplasmic reticulum, rich in cytochrome P450 enzymes.
In turn, `CN1CCN(CCCN2c3ccccc3Sc3ccc(C(F)(F)F)cc32)CC1` came in with a half-life of 22.5 min. The figure for `CC(C)NC[C@H](O)c1ccc2ccccc2c1` is 18.8 min; for `CCOC(=O)c1ncn2c1CN(C)C(=O)c1cc(F)ccc1-2` it is above 120 min. The compound `c1ccc(-c2csc(N3CCOCC3)n2)cc1` returned a half-life of 3.95 min.

`COc1cc2nc(=NC(=O)c3cccnc3)n3c(c2cc1OC)NCC3` gave a half-life of 45 min. The figure for `OC1(c2ccc(Cl)cc2)c2ccccc2C2=NCCN21` (stereo unspecified) is 74.4 min; for `O=C(NCc1ccc(OC(F)(F)F)cc1)C1c2c(F)cccc2C(=O)N1CCc1ccccn1` (stereo unspecified) it is 6.61 min; for `CCCCCCCCC=CCCCCCCCC(=O)NCCOC(=O)CC(C(=O)O)S(=O)(=O)O` (stereo unspecified) it is above 120 min. In the case of `CC(C)(C)c1coc([C@@H]2COCCN2Cc2cccc(C#N)c2)n1`, the half-life worked out at 10.4 min.

For the compound `Nc1ncnc2c1ncn2[C@@H]1O[C@H](CO)[C@@H](O)[C@@H]1O`, the half-life was above 120 min. The figure for `COc1cccc(C(=O)Nc2ccc3ncnc(N4CCCCC4)c3c2)c1` is 5.03 min; for `CCCCNc1c(C(=O)OCC)c(C)nc2c1cnn2CC` it is 5.85 min.

On to `COc1cc2c(NC3CCN(CC4CCCCC4)CC3)nc(N3CCCN(C(C)C)CC3)nc2cc1OCCCN1CCCCC1`, for which the half-life came out at 30 min. In turn, `CC(=O)N1CCN(c2ccc(O)cc2)CC1` came in with a half-life above 120 min. The figure for `O=C(CCc1nnc2n(Cc3ccc(Cl)cc3)c(=O)c3ccccc3n12)NCCC1=CCCCC1` is 1.05 min. The figure for `CCOC(=O)C1(c2ccccc2)CCN(CCc2ccc(N)cc2)CC1` is 86.5 min. The figure for `COc1cc(NC(=O)Nc2cccc(CNC(=O)O[C@H]3CCOC3)c2)ccc1-c1cnco1` is 27.7 min; for `Cc1ccc2c(n1)Oc1ccc(C(C)C(=O)OCC(=O)N(C)C)cc1C2` (stereo unspecified) it is 11.1 min; for `NC(=O)c1nnn(Cc2cc(Cl)c(C(=O)c3ccc(Cl)cc3)c(Cl)c2)c1N` it is above 120 min.

Regarding `Cc1ccccc1-n1c(SCc2ccc(Cl)cc2)nc2[nH]ncc2c1=O`, the half-life worked out at 53.2 min. The figure for `COc1ccc2c(CNCCc3ccccc3OC)c(C(=O)O)n(Cc3ccc(F)cc3Cl)c2c1` is 1.79 min.

In the case of `C[C@H]1CN(CC[C@H](O)C2CCCCC2)CC[C@@]1(C)c1cccc(O)c1`, the half-life was 6.75 min.

With `CN[C@@H](C)[C@@H](O)c1ccccc1`, the half-life is above 120 min.

Turning to `O=C(N[C@H]1CCN(C(=O)c2cc(C(F)(F)F)cc(C(F)(F)F)c2)[C@H](Cc2ccc(Cl)cc2)C1)c1ccnc2ccccc12`, the half-life stood at 49.2 min.

Turning to `CC(=O)OCC(=O)[C@@]12OC(C)(C)O[C@@H]1C[C@H]1[C@@H]3C[C@H](F)C4=CC(=O)C=C[C@]4(C)[C@@]3(F)[C@@H](O)C[C@@]12C`, the half-life was 44.3 min. The figure for `N#Cc1cn([C@@H]2O[C@H](CO)[C@H](O)[C@@H]2O)c2ncnc(N)c12` is above 120 min; for `Cc1oc(=O)oc1COC(=O)[C@@H]1N2C(=O)[C@@H](NC(=O)[C@H](N)c3ccccc3)[C@H]2SC1(C)C` it is 12.2 min. `O=C(O)COC(=O)Cc1ccccc1Nc1c(Cl)cccc1Cl` returned a half-life of 2.83 min. The figure for `CN(C)CCN(Cc1cccs1)c1ccccn1` is 23.8 min.

The compound `Cc1coc2c1C(=O)C(=O)c1c-2ccc2c1CCCC2(C)C` had a half-life of 5.39 min.

In the case of `CC1(C)O[C@@H]2C[C@H]3[C@@H]4C[C@H](F)C5=CC(=O)CC[C@]5(C)[C@H]4[C@@H](O)C[C@]3(C)[C@]2(C(=O)CO)O1`, the half-life was determined as 18 min. Turning to `Cc1cc(C(C)Nc2ccccc2C(=O)O)c2nc(N3CCOCC3)cc(=O)n2c1` (stereo unspecified), the half-life is above 120 min. The figure for `COc1ccc2c(c1OC)C(=O)O[C@@H]2[C@H]1c2cc3c(cc2CCN1C)OCO3` is 103 min.

In turn, `Cc1cc(C(C)Nc2ccccc2)c2nc(N3CCOCC3)cc(=O)n2c1` (stereo unspecified) registered a half-life of 17.2 min. With `C[C@H]1[C@H](/C=C/c2ccc(-c3ccccc3C#N)cn2)[C@@H]2[C@@H](C)OC(=O)[C@@H]2C[C@@H]1C`, the half-life is 15.3 min. The figure for `CCC(=O)N[C@@H]1Cc2ccccc2[C@H](c2ccccc2)C1` is 46.1 min.

For the compound `COc1ccc(CCNc2nc(SCc3ccccc3Cl)nc3ccccc23)cc1OC`, the half-life was found to be 7.1 min. The figure for `COc1cc2c(Nc3ccc(Cl)c(Cl)c3F)ncnc2cc1OCC1C[C@@H]2CN(C)C[C@@H]2C1` (stereo partly specified) is 61.9 min; for `C#CCN(C)CCCOc1ccc(Cl)cc1Cl` it is 3.52 min; for `CCOc1ccc(S(=O)(=O)N2CCCCCC2)c2ccccc12` it is 6.52 min. The figure for `C[C@@H](N)c1ccc(C(=O)Nc2ccnc3[nH]ccc23)cc1` is above 120 min. The figure for `COc1cc(C(=O)NCC2(N(C)C)CCCC2)cc(OC)c1OCc1ccccc1` is 38.3 min; for `CCOc1ccccc1NC(=O)CSc1nc2ccccc2c2nc(CCn3cncc3C)nn12` it is 5.36 min.

For the compound `Cn1c(=O)c2c(ncn2CCO)n(C)c1=O`, the half-life was above 120 min. The figure for `COc1cc(NS(=O)(=O)c2ccc(N)cc2)nc(OC)n1` is above 120 min; for `COc1ccc(CNC(=O)C2CCCN(c3nnc(C)c4c(C)n(-c5ccc(C)cc5)nc34)C2)cc1` (stereo unspecified) it is 5.53 min; for `COc1cc2ncnc(Nc3cc(Br)c(O)c(Br)c3)c2cc1OC` it is above 120 min. The figure for `CN(C(=O)CN(CCO)CC(=O)N(C)C(C)(C)Cc1ccccc1)C(C)(C)Cc1ccccc1` is 0.58 min. The figure for `CCC(C(=O)O)c1ccc(N2Cc3ccccc3C2=O)cc1` (stereo unspecified) is above 120 min.

For the compound `COc1cc2c(cc1OC)CN(C(=O)[C@@H](NCc1ccncc1)C(C)(C)C)CC2`, the half-life was determined as 2.24 min. `CCOC(=O)c1cc(=O)c2c(OCC(COc3cccc4oc(C(=O)OCC)cc(=O)c34)OC(=O)[C@@H](N)CCCCN)cccc2o1` displayed a half-life of 4.47 min. The figure for `CC1(C)C(=O)C(C)(C)c2cc(C(=O)Nc3ccc(C(=O)O)cc3)ccc21` is above 120 min; for `COc1cc(C(c2c(C)[nH][nH]c2=O)c2c(C)[nH][nH]c2=O)ccc1OC(=O)c1ccccc1F` it is 1.83 min. The figure for `Cc1c(NC(=O)c2ccc(N3CCC(C)CC3)c([N+](=O)[O-])c2)cccc1-c1nc2ccccc2o1` is 30.7 min. On to `CC(CN(C)C)CN1C2=C(CCCC2)SC2CCCCC21` (stereo unspecified), for which the half-life came out at 14.3 min. The figure for `Cn1c(=O)cc(N2CCCC(N)C2)n(Cc2ccccc2C#N)c1=O` (stereo unspecified) is above 120 min; for `COc1cc2c(cc1OC)CN(C(=O)[C@H](C)N[C@@H](CCc1ccccc1)C(=O)O)[C@H](C(=O)O)C2` it is above 120 min; for `CCCc1ccc(C(=O)O)cc1` it is above 120 min. On to `Cc1nc2c3ccccc3nc(NNC(=O)CCC(=O)N3CCN(c4cccc(Cl)c4)CC3)n2n1`, for which the half-life turned out to be 10.9 min.

As to `CCOC(=O)c1c(NC(=O)c2ccc(S(=O)(=O)N(C)C3CCCCC3)cc2)sc2c1CCN(C(C)C)C2`, the half-life worked out at 2.21 min.

Compound `COc1ccc(CNc2nc(N(CCO)CCO)nc3c2ncn3C(C)C)cc1` returned a half-life of 35.6 min.

`Cc1nnc(C(C)C)n1C1CC2CCC(C1)N2CCC(NC(=O)C1CCC(F)(F)CC1)c1ccccc1` (stereo unspecified) registered a half-life above 120 min.

Take `CCCCC(CC)CN=C(N)NC(N)=NCCCCCCN=C(N)NC(N)=NCC(CC)CCCC` (stereo unspecified): the half-life was above 120 min. The figure for `COc1ccc(CCNC(=O)CCc2c(C)c3cc4c(C)coc4cc3oc2=O)cc1` is 5.41 min; for `O=c1cc(N2CCOCC2)oc2c(-c3cccc(F)c3)nccc12` it is 34.5 min; for `Nc1ccc(N=Nc2ccccc2)c(N)n1` it is 7.45 min. The figure for `CC(=O)[C@H]1CC[C@H]2C3CC=C4C[C@@H](O)CC[C@]4(C)C3CC[C@]12C` (stereo partly specified) is 106 min; for `CC(C)(C)NCC(O)COc1ccc(NC(=O)NC2CCCCC2)cc1` (stereo unspecified) it is above 120 min. With `COC(=O)[C@H](Cc1ccccc1)NC(=O)[C@@H](N)CC(=O)O` (H-Asp-Phe-OMe), the half-life was 40.7 min. The figure for `O=C(O)c1ccc(CN2CCC(CN[C@@H]3C[C@H]3c3ccccc3)CC2)cc1` is above 120 min; for `COc1ccc(OC)c(C2C(C#N)=C(N)Oc3n[nH]c(-c4ccc5ccccc5c4)c32)c1` (stereo unspecified) it is above 120 min. The figure for `NCCc1ccc(O)cc1` is above 120 min; for `COc1ccc(Sc2ccc(NC(=O)c3ccccc3Cl)cc2C#N)cc1` it is 31.4 min.

`Cc1cc(-c2ncc(CC(=O)Nc3ccc(-c4cnccn4)cn3)cc2C)ccn1` displayed a half-life of 36.4 min.

`CN1CCC(=C2c3ccccc3CCc3cccnc32)CC1` gave a half-life above 120 min. In turn, `NC(N)=NS(=O)(=O)c1ccc(N)cc1` returned a half-life of 78.3 min.

Broadly, the half-life is the time needed for the level to fall by half in the phase considered.
